According to PubChem BioAssay AID1963864 (Molecular Pharmacology Branch, DTP, NCI, 2024):

System: KRAS PDC multicell spheroid viability
Assay: Anticancer human tumor 521955-158-R6-J3-PDC patient-derived pancreatic carcinoma cell line growth inhibition [KRAS2]
Details: for IC50: curve of first compound; for viability, T/C: stronger effect = lower value
Summary of the method: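 KRAS-mutant tumor cells were grown as spheroids with HUVEC endothelial cells and human MSCs as stroma. Targeted agents were tested alone and with KRAS pathway inhibitors. Doses started at or near clinical Cmax, or 10 microM, descending half-log.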

[1] = second compound 0.1 µM, first compound 0.0316 µM
[2] = second compound 0.1 µM, first compound 0.1 µM
[3] = second compound 0.1 µM, first compound 0.316 µM
[4] = second compound 0.1 µM, first compound 1 µM
[5] = second compound 0.1 µM, first compound 3.16 µM
[6] = second compound 0.316 µM, first compound 0.0316 µM
[7] = second compound 0.316 µM, first compound 0.1 µM
[8] = second compound 0.316 µM, first compound 0.316 µM
[9] = second compound 0.316 µM, first compound 1 µM
[10] = second compound 0.316 µM, first compound 3.16 µM
[11] = second compound 1 µM, first compound 0.0316 µM
[12] = second compound 1 µM, first compound 0.1 µM
[13] = second compound 1 µM, first compound 0.316 µM
[14] = second compound 1 µM, first compound 1 µM
[15] = second compound 1 µM, first compound 3.16 µM
[16] = second compound 3.16 µM, first compound 0.0316 µM
[17] = second compound 3.16 µM, first compound 0.1 µM
[18] = second compound 3.16 µM, first compound 0.316 µM
[19] = second compound 3.16 µM, first compound 1 µM
[20] = second compound 3.16 µM, first compound 3.16 µM
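Further: drug exposure lasted seven days.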
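Wherever viability, T/C is given: 100% = DMSO vehicle wells and lower means fewer viable cells.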

Structure (SMILES)	IC50 (second compound 0.1 µM) [nM]	IC50 (second compound 0.316 µM) [nM]	IC50 (second compound 1 µM) [nM]	IC50 (second compound 3.16 µM) [nM]	viability, T/C [1] [%]	viability, T/C [2] [%]	viability, T/C [3] [%]	viability, T/C [4] [%]	viability, T/C [5] [%]	viability, T/C [6] [%]	viability, T/C [7] [%]	viability, T/C [8] [%]	viability, T/C [9] [%]	viability, T/C [10] [%]	viability, T/C [11] [%]	viability, T/C [12] [%]	viability, T/C [13] [%]	viability, T/C [14] [%]	viability, T/C [15] [%]	viability, T/C [16] [%]	further results
CC1COCCN1c1cc(-c2ccnn2C)c2ccnc(-c3ccn[nH]3)c2n1 (stereo not given) + C=CC(=O)N1CCN(c2nc(=O)n(-c3c(C)ccnc3C(C)C)c3nc(-c4c(O)cccc4F)c(F)cc23)C(C)C1	> 3160	> 3160	> 3160	> 3160	91	76.7	77.9	73	82.7	98.4	87.8	95.1	88	91.9	111	96	84.5	79.6	91.9	96.9	IC50 (second compound 10 µM): > 3160 nM; viability, T/C (second compound 0.1 µM, first compound 0.01 µM): 97.3%; viability, T/C (second compound 0.316 µM, first compound 0.01 µM): 95%; viability, T/C (second compound 1 µM, first compound 0.01 µM): 91.7%; viability, T/C (second compound 3.16 µM, first compound 0.01 µM): 88.4%; viability, T/C [17]: 88.4%; viability, T/C [18]: 79.3%; viability, T/C [19]: 69.4%; viability, T/C [20]: 82.2%; viability, T/C (second compound 10 µM, first compound 0.01 µM): 77.6%; viability, T/C (second compound 10 µM, first compound 0.0316 µM): 69.5%; viability, T/C (second compound 10 µM, first compound 0.1 µM): 71%; viability, T/C (second compound 10 µM, first compound 0.316 µM): 57.2%; viability, T/C (second compound 10 µM, first compound 1 µM): 67.2%; viability, T/C (second compound 10 µM, first compound 3.16 µM): 66.9%
COC(=O)c1ccc2c(C(=Nc3ccc(N(C)C(=O)CN4CCN(C)CC4)cc3)c3ccccc3)c(O)[nH]c2c1 + C=CC(=O)N1CCN(c2nc(OCC3CCCN3C)nc3c2CCN(c2cccc4cccc(C)c24)C3)CC1CC#N	2840	2840	1830	< 31.6	91.8	116	102	111	44.3	79.7	102	103	106	45.1	74.3	75.5	90.2	95.4	19.1	36.9	IC50 (second compound 0.0316 µM): 3090 nM; viability, T/C (second compound 0.0316 µM, first compound 0.0316 µM): 96.2%; viability, T/C (second compound 0.0316 µM, first compound 0.1 µM): 110%; viability, T/C (second compound 0.0316 µM, first compound 0.316 µM): 116%; viability, T/C (second compound 0.0316 µM, first compound 1 µM): 123%; viability, T/C (second compound 0.0316 µM, first compound 3.16 µM): 48.8%; viability, T/C (second compound 0.0316 µM, first compound 10 µM): 0.2%; viability, T/C (second compound 0.1 µM, first compound 10 µM): 1.53%; viability, T/C (second compound 0.316 µM, first compound 10 µM): 1.91%; viability, T/C (second compound 1 µM, first compound 10 µM): 1.01%; viability, T/C [17]: 31.4%; viability, T/C [18]: 37.8%; viability, T/C [19]: 5.71%; viability, T/C [20]: 1.1%; viability, T/C (second compound 3.16 µM, first compound 10 µM): 0.76%
